Legend:
barnyardgrass [1] = assay: Test B pre-/postemergence herbicide test; format: in vivo, Echinochloa crus-galli
In short: (§1)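 Flooded paddy rice and barnyardgrass were treated at the 2-leaf stage; upland plantings received compound either on sown seed or on 1- to 4-leaf seedlings. All were kept 13–15 days in a greenhouse and scored visually, 0–100, relative to untreated plants.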

Surinam grass = assay: Test B pre-/postemergence herbicide test; format: in vivo, Urochloa decumbens
In short: (§2)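 Response was scored visually 13 to 15 days after treatment against untreated greenhouse controls, 0 meaning no effect and 100 complete control. Formulations (solvent mixture plus surfactant) went onto soil after planting, onto foliage of 1- to 4-leaf plants, and onto 2-leaf plants in a flooded paddy set including rice and barnyardgrass.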

cocklebur = assay: Test B pre-/postemergence herbicide test; format: in vivo, Xanthium strumarium
In short: as §1

large crabgrass = assay: Test B pre-/postemergence herbicide test; format: in vivo, Digitaria sanguinalis
In short: as §2

giant foxtail = assay: Test B pre-/postemergence herbicide test; format: in vivo, Setaria faberi
In short: as §2

lambsquarters = assay: Test B pre-/postemergence herbicide test; format: in vivo, Chenopodium album
In short: as §2

morningglory = assay: Test B pre-/postemergence herbicide test; format: in vivo, Ipomoea coccinea
In short: as §1

pigweed = assay: Test B pre-/postemergence herbicide test; format: in vivo, Amaranthus retroflexus
In short: as §2

velvetleaf = assay: Test B pre-/postemergence herbicide test; format: in vivo, Abutilon theophrasti
In short: as §2

wheat = assay: Test B postemergence herbicide test; format: in vivo, Triticum aestivum; design: key to Wheat plant response rating: 0 = no effect, 100 = complete control
In short: (§3)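 Plants grow to 1- to 4-leaf stage (2–18 cm) for postemergence spraying, or to 2-leaf stage for the paddy test. Formulated compound is applied. Greenhouse holding lasts 13–15 days. Response is scored visually relative to controls, 0 no effect to 100 complete control; a dash means no result.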

wild oat = assay: Test B postemergence herbicide test; format: in vivo, Avena fatua
In short: as §3

rice = assay: Test B flooded paddy test; format: in vivo, Oryza sativa; conditions: 1000 g ai/ha, scale 0 to 100 (0 no effect, 100 complete control)
In short: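 Postemergence plants were sprayed with formulated test chemicals at 2 to 18 cm height (1- to 4-leaf stage); paddy species were grown to the 2-leaf stage. After 13 to 15 days in a greenhouse, injury was rated visually against untreated controls on a 0–100 scale (0 = no effect, 100 = complete control).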

[2] = tested on: small flower umbrella sedge; assay: Test B flooded paddy test; format: in vivo, Cyperus difformis; conditions: 1000 g ai/ha, scale 0 to 100 (0 no effect, 100 complete control)
In short: (§4)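 After treating 2-leaf paddy plants or 2–18 cm postemergence plants (1 to 4 leaves) with formulated chemical, researchers kept them in a greenhouse for 13–15 days. Effects were judged visually versus controls: 0 indicates none, 100 total control.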

ducksalad = assay: Test B flooded paddy test; format: in vivo, Heteranthera limosa; conditions: 1000 g ai/ha, scale 0 to 100 (0 no effect, 100 complete control)
In short: as §4

barnyardgrass [3] = assay: Test B flooded paddy test; format: in vivo, Echinochloa crus-galli; conditions: 1000 g ai/ha, scale 0 to 100 (0 no effect, 100 complete control)
In short: as §4

[4] = 500 g ai/ha; visual rating 0-100, 0 no effect, 100 complete control; preemergence
[5] = postemergence, 125 g ai/ha; visual rating, scale 0 (no effect) to 100 (complete control)
[6] = postemergence, 500 g ai/ha; visual rating, scale 0 (no effect) to 100 (complete control)
[7] = preemergence, 125 g ai/ha; 0 to 100 scale, 0 is no effect, 100 is complete control
[8] = 125 g ai/ha; 0 = no effect, 100 = complete control; preemergence
[9] = 125 g ai/ha; visual rating, scale 0 (no effect) to 100 (complete control); postemergence
[10] = 500 g ai/ha; visual rating, 0 = no effect, 100 = complete control; preemergence
[11] = postemergence, 500 g ai/ha; scale 0 to 100, 0 is no effect, 100 is complete control

With `CCn1nc(C(C)(C)C)cc1C(=O)Nc1cccc(C#N)c1` [Compound 139] the “Plant response rating, Barnyardgrass” value (barnyardgrass [1]; [4]) was 90, the “Barnyardgrass plant response rating” value (barnyardgrass [1]; [5]) was 10 and the “Barnyardgrass plant response rating” value (barnyardgrass [1]; [6]) was 10. The “Plant response rating, Barnyardgrass” value (barnyardgrass [1]; [7]) was 80, the “Plant response rating, Surinam Grass” value (Surinam grass; [4]) was 90 and the “Surinam Grass plant response rating” value (Surinam grass; [5]) was 10. The “Surinam Grass plant response rating” value (Surinam grass; [6]) was 20, the “Plant response rating, Surinam Grass” value (Surinam grass; [7]) was 30 and the “Plant response rating, Cocklebur” value (cocklebur; [4]) was 10. The “Cocklebur plant response rating” value (cocklebur; [5]) was 20, the “Cocklebur plant response rating” value (cocklebur; [6]) was 100 and the “Plant response rating, Cocklebur” value (cocklebur; [7]) was 0. The “Plant response rating, Crabgrass, Large” value (large crabgrass; [4]) was 100, the “Crabgrass, Large plant response rating” value (large crabgrass; [5]) was 10 and the “Crabgrass, Large plant response rating” value (large crabgrass; [6]) was 20. For the same compound, the “Plant response rating, Crabgrass, Large” value (large crabgrass; [7]) was 60, the “Plant response rating, Foxtail, Giant” value (giant foxtail; [4]) was 100 and the “Foxtail, Giant plant response rating” value (giant foxtail; [5]) was 10. For the same compound, the “Foxtail, Giant plant response rating” value (giant foxtail; [6]) was 20, the “Plant response rating, Foxtail, Giant” value (giant foxtail; [7]) was 70 and the “Plant response rating, Lambsquarters” value (lambsquarters; [4]) was 100. The “Lambsquarters plant response rating” value (lambsquarters; [5]) was 80, the “Lambsquarters plant response rating” value (lambsquarters; [6]) was 90 and the “Plant response rating, Lambsquarters” value (lambsquarters; [7]) was 100. The “Plant response rating, Morningglory” value (morningglory; [4]) was 30, the “Morningglory plant response rating” value (morningglory; [5]) was 10 and the “Morningglory plant response rating” value (morningglory; [6]) was 100. For the same compound, the “Plant response rating, Morningglory” value (morningglory; [7]) was 10, the “Plant response rating, Pigweed” value (pigweed; [4]) was 100 and the “Pigweed plant response rating” value (pigweed; [5]) was 60. For the same compound, the “Pigweed plant response rating” value (pigweed; [6]) was 90, the “Plant response rating, Pigweed” value (pigweed; [7]) was 90 and the “Plant response rating, Velvetleaf” value (velvetleaf; [4]) was 80. For the same compound, the “Velvetleaf plant response rating” value (velvetleaf; [5]) was 20, the “Velvetleaf plant response rating” value (velvetleaf; [6]) was 60 and the “Plant response rating, Velvetleaf” value (velvetleaf; [7]) was 50. For the same compound, the “Wheat plant response rating” value (wheat; [6]) was 10, the “Oat, Wild plant response rating” value (wild oat; [5]) was 10 and the “Oat, Wild plant response rating” value (wild oat; [6]) was 10. The “Rice plant response rating” value (rice; visual rating, 13 to 15 days) was 50, the “Sedge, Umbrella plant response rating” value ([2]; visual rating, 13 to 15 days) was 80 and the “Ducksalad plant response rating” value (ducksalad; visual rating, 13 to 15 days) was 80. For the same compound, the “Barnyardgrass plant response rating” value (barnyardgrass [3]; visual rating, 13 to 15 days) was 70.
With `CCc1nn(C(C)(C)C)cc1C(=O)Nc1cccc(C(C)=NO)c1` [Compound 188] the “Barnyardgrass plant response rating (0 to 100 scale)” value (barnyardgrass [1]; [8]) was 80, the “Plant response rating, Barnyardgrass” value (barnyardgrass [1]; [4]) was 100 and the “Barnyardgrass plant response rating” value (barnyardgrass [1]; [5]) was 10. For the same compound, the “Barnyardgrass plant response rating” value (barnyardgrass [1]; [6]) was 20, the “Surinam Grass plant response rating (0 to 100 scale)” value (Surinam grass; [8]) was 30 and the “Plant response rating, Surinam Grass” value (Surinam grass; [4]) was 70. The “Surinam Grass plant response rating” value (Surinam grass; [5]) was 10, the “Surinam Grass plant response rating” value (Surinam grass; [6]) was 10 and the “Cocklebur plant response rating (0 to 100 scale)” value (cocklebur; [8]) was 0. The “Plant response rating, Cocklebur” value (cocklebur; [4]) was 0, the “Cocklebur plant response rating” value (cocklebur; [5]) was 20 and the “Cocklebur plant response rating” value (cocklebur; [6]) was 90. The “Crabgrass, Large plant response rating (0 to 100 scale)” value (large crabgrass; [8]) was 100, the “Plant response rating, Crabgrass, Large” value (large crabgrass; [4]) was 100 and the “Crabgrass, Large plant response rating” value (large crabgrass; [5]) was 10. The “Crabgrass, Large plant response rating” value (large crabgrass; [6]) was 10, the “Foxtail, Giant plant response rating (0 to 100 scale)” value (giant foxtail; [8]) was 50 and the “Plant response rating, Foxtail, Giant” value (giant foxtail; [4]) was 100. For the same compound, the “Foxtail, Giant plant response rating” value (giant foxtail; [5]) was 10, the “Foxtail, Giant plant response rating” value (giant foxtail; [6]) was 10 and the “Lambsquarters plant response rating (0 to 100 scale)” value (lambsquarters; [8]) was 90. For the same compound, the “Plant response rating, Lambsquarters” value (lambsquarters; [4]) was 100, the “Lambsquarters plant response rating” value (lambsquarters; [5]) was 60 and the “Lambsquarters plant response rating” value (lambsquarters; [6]) was 70. For the same compound, the “Morningglory plant response rating (0 to 100 scale)” value (morningglory; [8]) was 10, the “Morningglory plant response rating” value (morningglory; [5]) was 20 and the “Morningglory plant response rating” value (morningglory; [6]) was 60. For the same compound, the “Pigweed plant response rating (0 to 100 scale)” value (pigweed; [8]) was 40, the “Plant response rating, Pigweed” value (pigweed; [4]) was 70 and the “Pigweed plant response rating” value (pigweed; [5]) was 50. The “Pigweed plant response rating” value (pigweed; [6]) was 70, the “Velvetleaf plant response rating (0 to 100 scale)” value (velvetleaf; [8]) was 70 and the “Plant response rating, Velvetleaf” value (velvetleaf; [4]) was 100. The “Velvetleaf plant response rating” value (velvetleaf; [5]) was 10, the “Velvetleaf plant response rating” value (velvetleaf; [6]) was 20 and the “Wheat plant response rating” value (wheat; [5]) was 0. The “Wheat plant response rating” value (wheat; [6]) was 10, the “Oat, Wild plant response rating” value (wild oat; [5]) was 20 and the “Oat, Wild plant response rating” value (wild oat; [6]) was 20. For the same compound, the “Rice plant response rating” value (rice; visual rating, 13 to 15 days) was 70, the “Sedge, Umbrella plant response rating” value ([2]; visual rating, 13 to 15 days) was 80 and the “Ducksalad plant response rating” value (ducksalad; visual rating, 13 to 15 days) was 80. The “Barnyardgrass plant response rating” value (barnyardgrass [3]; visual rating, 13 to 15 days) was 60.
For `CCOC(=O)c1ccc(F)c(NC(=O)c2cc(C3(C)CC3)nn2CC)c1` [Compound 296], the “Barnyardgrass plant response rating (0 to 100 scale)” value (barnyardgrass [1]; [8]) was 30, the “Barnyardgrass plant response rating” value (barnyardgrass [1]; [9]) was 30 and the “Plant response rating, Barnyardgrass” value (barnyardgrass [1]; [10]) was 60. The “Barnyardgrass plant response rating” value (barnyardgrass [1]; [11]) was 80, the “Surinam Grass plant response rating (0 to 100 scale)” value (Surinam grass; [8]) was 20 and the “Surinam Grass plant response rating” value (Surinam grass; [9]) was 40. The “Plant response rating, Surinam Grass” value (Surinam grass; [10]) was 60, the “Surinam Grass plant response rating” value (Surinam grass; [11]) was 50 and the “Cocklebur plant response rating (0 to 100 scale)” value (cocklebur; [8]) was 0. For the same compound, the “Cocklebur plant response rating” value (cocklebur; [9]) was 50, the “Plant response rating, Cocklebur” value (cocklebur; [10]) was 0 and the “Cocklebur plant response rating” value (cocklebur; [11]) was 60. The “Crabgrass, Large plant response rating (0 to 100 scale)” value (large crabgrass; [8]) was 40, the “Crabgrass, Large plant response rating” value (large crabgrass; [9]) was 30 and the “Plant response rating, Crabgrass, Large” value (large crabgrass; [10]) was 100. The “Crabgrass, Large plant response rating” value (large crabgrass; [11]) was 60, the “Foxtail, Giant plant response rating (0 to 100 scale)” value (giant foxtail; [8]) was 70 and the “Foxtail, Giant plant response rating” value (giant foxtail; [9]) was 60. The “Plant response rating, Foxtail, Giant” value (giant foxtail; [10]) was 90, the “Foxtail, Giant plant response rating” value (giant foxtail; [11]) was 60 and the “Lambsquarters plant response rating (0 to 100 scale)” value (lambsquarters; [8]) was 90. For the same compound, the “Lambsquarters plant response rating” value (lambsquarters; [9]) was 50, the “Plant response rating, Lambsquarters” value (lambsquarters; [10]) was 100 and the “Lambsquarters plant response rating” value (lambsquarters; [11]) was 70. The “Morningglory plant response rating (0 to 100 scale)” value (morningglory; [8]) was 10, the “Morningglory plant response rating” value (morningglory; [9]) was 50 and the “Plant response rating, Morningglory” value (morningglory; [10]) was 20. The “Morningglory plant response rating” value (morningglory; [11]) was 80, the “Pigweed plant response rating (0 to 100 scale)” value (pigweed; [8]) was 70 and the “Pigweed plant response rating” value (pigweed; [9]) was 80. The “Plant response rating, Pigweed” value (pigweed; [10]) was 80, the “Pigweed plant response rating” value (pigweed; [11]) was 100 and the “Velvetleaf plant response rating” value (velvetleaf; [9]) was 90. The “Plant response rating, Velvetleaf” value (velvetleaf; [10]) was 80, the “Velvetleaf plant response rating” value (velvetleaf; [11]) was 100 and the “Wheat plant response rating” value (wheat; [9]) was 20. For the same compound, the “Wheat plant response rating” value (wheat; [11]) was 30, the “Oat, Wild plant response rating” value (wild oat; [9]) was 30 and the “Oat, Wild plant response rating” value (wild oat; [11]) was 40. The “Rice plant response rating” value (rice) was 60, the “Sedge, Umbrella plant response rating” value [2] was 80 and the “Ducksalad plant response rating” value (ducksalad) was 80. For the same compound, the “Barnyardgrass plant response rating” value (barnyardgrass [3]) was 80.
